The structures appear in SMILES notation.

T1 sequence (Q13224 27-1484, other chains not shown): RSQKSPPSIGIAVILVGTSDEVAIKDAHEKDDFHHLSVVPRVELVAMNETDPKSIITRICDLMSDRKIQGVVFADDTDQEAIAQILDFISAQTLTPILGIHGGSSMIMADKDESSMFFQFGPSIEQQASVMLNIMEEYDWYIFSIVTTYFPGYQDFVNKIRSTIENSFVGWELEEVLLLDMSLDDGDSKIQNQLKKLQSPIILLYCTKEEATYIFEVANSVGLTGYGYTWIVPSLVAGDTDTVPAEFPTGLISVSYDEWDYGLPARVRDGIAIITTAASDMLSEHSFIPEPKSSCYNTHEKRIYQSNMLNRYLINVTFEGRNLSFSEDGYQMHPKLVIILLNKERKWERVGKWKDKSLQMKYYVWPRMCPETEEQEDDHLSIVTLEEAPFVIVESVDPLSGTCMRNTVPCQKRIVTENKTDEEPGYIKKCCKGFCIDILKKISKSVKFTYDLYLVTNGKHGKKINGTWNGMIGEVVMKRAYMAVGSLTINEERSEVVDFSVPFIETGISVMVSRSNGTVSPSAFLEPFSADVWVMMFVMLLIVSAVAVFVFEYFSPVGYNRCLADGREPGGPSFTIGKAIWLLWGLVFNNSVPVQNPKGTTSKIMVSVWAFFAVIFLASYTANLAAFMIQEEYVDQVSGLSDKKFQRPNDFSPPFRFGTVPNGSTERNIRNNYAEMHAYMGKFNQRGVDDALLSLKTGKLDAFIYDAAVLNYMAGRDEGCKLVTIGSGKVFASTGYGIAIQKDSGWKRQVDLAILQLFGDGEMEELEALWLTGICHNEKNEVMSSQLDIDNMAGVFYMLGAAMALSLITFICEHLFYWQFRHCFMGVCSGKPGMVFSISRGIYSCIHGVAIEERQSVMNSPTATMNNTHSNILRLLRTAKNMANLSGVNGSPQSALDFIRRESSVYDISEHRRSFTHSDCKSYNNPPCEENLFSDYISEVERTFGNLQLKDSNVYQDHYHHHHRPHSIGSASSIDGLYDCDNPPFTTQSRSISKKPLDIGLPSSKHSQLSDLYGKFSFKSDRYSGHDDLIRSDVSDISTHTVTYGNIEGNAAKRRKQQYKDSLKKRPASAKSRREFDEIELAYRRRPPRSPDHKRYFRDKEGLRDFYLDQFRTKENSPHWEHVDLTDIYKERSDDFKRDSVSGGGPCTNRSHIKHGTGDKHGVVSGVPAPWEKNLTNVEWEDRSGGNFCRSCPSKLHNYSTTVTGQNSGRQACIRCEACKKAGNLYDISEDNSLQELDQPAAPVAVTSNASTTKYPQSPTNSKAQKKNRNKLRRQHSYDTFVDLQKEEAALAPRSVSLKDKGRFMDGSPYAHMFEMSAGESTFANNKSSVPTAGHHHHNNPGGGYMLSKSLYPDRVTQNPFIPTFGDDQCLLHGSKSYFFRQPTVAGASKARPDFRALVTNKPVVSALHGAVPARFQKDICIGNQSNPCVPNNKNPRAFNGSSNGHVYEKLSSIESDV

The assay has as its target T1, NMDA receptor composed of four subunits including 2 sets of heterodimers of NR1 and NR2B (Homo sapiens, UniProt Q13224).
T1 construct: host or cells: HEK293 (tetracycline-induced expression)
Description: NR2B Ca2+ influx assay (FLIPR, Fluo-4) in HEK293 cells expressing human GRIN1 and GRIN2B. Type of assay: cell-based. As to conditions: HEK293, 10 μM final compound concentration, glutamic acid/glycine-induced Ca2+ influx, read-out: inhibitory rate (10 μM compound concentration). The source says:
To confirm the “antagonistic action on an NMDA receptor containing the NR2B subunit” of the compound of the present invention, human embryonic kidney cell expressing the “NMDA receptor composed of four subunits including 2 sets of heterodimers of NR1 and NR2B”, specifically HEK293 cell expressing human glutamate ionotropic receptor NMDA type subunit 1 (GRIN1) and human glutamate ionotropic receptor NMDA type subunit 2B (GRIN2B), was used and the activation suppressive effect on the receptors was measured.
As an index of the NMDA receptor activation, intracellular calcium ion (Ca^2+) influx caused by the binding of glycine and glutamic acid with NR1 and NR2B, respectively, was used. HEK293 cells were purchased from ChanTest. The cells were cultured in a DMEM/F-12 (COSMO BIO, 10-092-CM) medium added with 10% FBS′(fetal bovine serum, AusGene), 100 units/mL penicillin, 100 μg/mL streptomycin, 500 μg/mL neomycin, 100 μg/mL Zeocin, 5 μg/mL Blasticidin at 37° C., 5% CO2. The cells were detached from flask with trypsin the day before the assay, suspended in a seeding medium (DMEM (Invitrogen, 31053) added with 10% FBS, 100 units/mL penicillin, 100 μg/mL streptomycin) at 8×10^5 cells/mL, seeded by 25 μL per well in a 384-well plate (Falcon, 356663) at 20000 cells/well, and cultured overnight in an incubator. On the day of the assay, tetracycline (Wako Pure Chemical Industries, Ltd., 209-16561) was diluted with the seeding medium at 2 μg/mL, added at […] to the plate seeded with the cells, and cultured for 2 hr in an incubator. Thereafter, the medium was removed, and the cells were washed with 50 μL/well assay buffer (137 mM NaCl, 4 mM KCl, 1.8 mM CaCl2, 10 mM HEPES (pH 7.2), 10 mM Glucose, 0.1% BSA). Then, a loading buffer (assay buffer added with 2.5 uM Fluo-4AM, 2 mM Amaranth, 1 mM Tartrazine) was added at 25 μL/well, and loading was performed in the incubator for 30 min, and at room temperature for 15 min. A solution (25 μL) of the Example compound diluted with the above-mentioned assay buffer at 30 μM (final concentration 10 μM) was added, and the cells were stood for 15 min at room temperature. Using FLIPR (Molecular Devices), 25 μL of an assay buffer containing 30 μM glutamic acid, 30 μM glycine was added, and the fluorescence signal was measured every 3 seconds for 5 min. The inhibitory activity was calculated as a relative activity value (inhibitory rate) that inhibits 100% of the cumulative value of the fluorescence value of a well added with a buffer free of glutamic acid, glycine, relative to the cumulative value of the fluorescence value of each well.
Regarding `CCn1cnc2ccc(OC)c(CNC(=O)c3cc(F)c(OC)c(F)c3)c21` [Example 151, N-((1-ethyl-6-methoxy-1H-benzimidazol-7-yl)methyl)-3,5-difluoro-4-methoxybenzamide], the inhibition at 10 µM came out at 83%.
As for `COc1ccc2nc(C)n(C)c2c1CNC(=O)c1ccc(C(F)(F)F)cc1` [Example 237, N-((6-methoxy-1,2-dimethyl-1H-benzimidazol-7-yl)methyl)-4-(trifluoromethyl)-benzamide], the inhibition at 10 µM is 68%.
To `COc1ncc(C(=O)NCc2c(C3CC3)ccc3[nH]ncc23)cc1Cl` [Example 103, 5-chloro-N-((5-cyclopropyl-1H-indazol-yl)methyl)-6-methoxynicotinamide] belongs 93%; to `COc1ccc2ncn(C)c2c1CNC(=O)c1cc(F)c(OC)c(Cl)c1` [Example 111, 3-chloro-5-fluoro-4-methoxy-N-((6-methoxy-1-methyl-1H-benzimidazol-7-yl)methyl)benzamide], 93%.
Under `Cc1ccc(C(=O)NCc2cccc3[nH]ncc23)cc1Cl` [Example 185, 3-chloro-N-(1H-indazol-4-ylmethyl)-4-methylbenzamide] stands 74%; under `COc1ccc2nc(C)n(C)c2c1CNC(=O)c1ccc(C(F)(F)F)c(F)c1` [Example 236, 3-fluoro-N-((6-methoxy-1,2-dimethyl-1H-benzimidazol-7-yl)methyl)-4-(trifluoromethyl)-benzamide], 59%; under `CCc1ccc2[nH]nnc2c1CNC(=O)c1cnc(OC)c(F)c1` [Example 208, N-((5-ethyl-1H-benzotriazol-4-yl)methyl)-5-fluoro-6-methoxynicotinamide], 85%.
In the case of `CCn1cnc2ccc(OC)c(CNC(=O)c3cnc(OC)c(F)c3)c21` [Example 150, N-((1-ethyl-6-methoxy-1H-benzimidazol-7-yl)methyl)-5-fluoro-6-methoxynicotinamide], the inhibition at 10 µM was found to be 60%.
Consider `COc1ccc2ncn(C)c2c1CNC(=O)Nc1ccc(C(F)(F)F)c(F)c1` [Example 261, 1-(3-fluoro-4-(trifluoromethyl)-phenyl)-3-{(6-methoxy-1-methyl-1H-benzimidazol-7-yl)methyl)urea], for which the inhibition at 10 µM stood at 92%.
Under `O=C(NCc1cccc2[nH]ncc12)c1ccc(C(F)(F)F)cc1` [Example 175, N-(1H-indazol-4-ylmethyl)-4-(trifluoromethyl)-benzamide] stands 82%; under `COc1ccc2nc(C)n(C)c2c1CNC(=O)c1ccc(F)c(Cl)c1` [Example 247, 3-chloro-4-fluoro-N-((6-methoxy-1,2-dimethyl-1H-benzimidazol-7-yl)methyl)benzamide], 71%; under `COc1ccc2ncn(C)c2c1CNC(=O)Nc1ccc(C)cc1` [Example 256, 1-((6-methoxy-1-methyl-1H-benzimidazol-7-yl)methyl)-3-(4-methylphenyl)urea], 90%.
Regarding `COc1ccc2ncn(C)c2c1CNC(=O)c1cc(F)c(F)c(Cl)c1` [Example 18, 3-chloro-4,5-difluoro-N-((6-methoxy-1-methyl-1H-benzimidazol-7-yl)methyl)benzamide], the inhibition at 10 µM was determined as 87%.
Under `CCOc1ccc2ncn(C)c2c1CNC(=O)c1cc(F)c(OC)c(F)c1` [Example 127, N-((6-ethoxy-1-methyl-1H-benzimidazol-7-yl)methyl)-3,5-difluoro-4-methoxybenzamide] stands 92%; under `O=C(NCc1cccc2[nH]ncc12)c1ccc(OC(F)F)c(F)c1` [Example 192, 4-(difluoromethoxy)-3-fluoro-N-(1H-indazol-4-ylmethyl)benzamide], 94%.
With `COc1ccc2ncn(C)c2c1CNC(=O)Nc1ccccc1` [Example 255, 1-((6-methoxy-1-methyl-1H-benzimidazol-7-yl)methyl)-3-phenylurea], the inhibition at 10 µM worked out at 67%.
Under `CCOc1ncc(C(=O)NCc2c(OC)ccc3ncn(C)c23)cc1Cl` [Example 58, 5-chloro-6-ethoxy-N-((6-methoxy-1-methyl-1H-benzimidazol-7-yl)methyl)nicotinamide] stands 93%; under `COc1ccc2nc(C)n(C)c2c1CNC(=O)c1ccc(C(F)F)c(F)c1` [Example 242, 4-(difluoromethyl)-3-fluoro-N-((6-methoxy-1,2-dimethyl-lH-benzimidazol-7-yl)methyl)benzamide], 69%; under `COc1ccc(C(=O)NCc2c(C3CC3)ccc3[nH]ncc23)cc1Cl` [Example 80, 3-chloro-N-((5-cyclo-propyl-1H-indazol-4-yl)methyl)-4-methoxybenzamide], 93%.
With `COc1cc(C(=O)NCc2c(OC)ccc3ncn(C)c23)ccc1Cl` [Example 45, 4-chloro-3-methoxy-N-((6-methoxy-1-methyl-1H-benzimidazol-7-yl)methyl)benzamide], the inhibition at 10 µM was 64%.
For the molecule `COc1ccc(C(=O)NCc2c(OC)ccc3ncn(C)c23)cc1F` [Example 11, 3-fluoro-4-methoxy-N-((6-methoxy-1-methyl-1H-benzimidazol-7-yl)methyl)benzamide], the inhibition at 10 µM was 92%.
Under `Cc1n[nH]c2cccc(CNC(=O)c3cnc(OC(F)F)c(F)c3)c12` [Example 271, 6-(difluoromethoxy)-5-fluoro-N-((3-methyl-1H-indazol-4-yl)methyl)nicotinamide] stands 82%; under `COc1ccc(C(=O)NCc2c(OC)ccc3ncn(C)c23)cc1Cl` [Example 34, 3-chloro-4-methoxy-N-((6-methoxy-1-methyl-1H-benzimidazol-7-yl)methyl)benzamide], 89%; under `COc1ccc2ncn(C)c2c1CNC(=O)Nc1ccc(C(F)(F)F)cc1` [Example 262, 1-((6-methoxy-1-methyl-1H-benzimidazol-7-yl)methyl)-3-(4-(trifluoromethyl)-phenyl)urea], 91%.
With `COc1ccc2nc(C)n(C)c2c1CNC(=O)c1ccc(OC(F)F)nc1` [Example 254, 6-(difluoromethoxy)-N-((6-methoxy-1,2-dimethyl-lH-benzimidazol-7-yl)methyl)nicotinamide], the inhibition at 10 µM stood at 69%.
Under `CCc1ccc2ncn(C)c2c1CNC(=O)c1ccc(OC)cc1` [Example 145, N-((6-ethyl-1-methyl-1H-benzimidazol-7-yl)methyl)-4-methoxybenzamide] stands 92%; under `O=C(NCc1c(C2CC2)ccc2[nH]nnc12)c1cnc(OC(F)F)c(F)c1` [Example 226, N-((5-cyclopropyl-1H-benzotriazol-4-yl)methyl)-6-(difluoromethoxy)-5-fluoronicotinamide], 94%; under `Cc1ccc2[nH]nnc2c1CNC(=O)c1cc(F)c(C(F)(F)F)c(F)c1` [Example 195, 3,5-difluoro-N-((5-methyl-1H-benzotriazol-4-yl)methyl)-4-(trifluoromethyl)-benzamide], 91%.
To `Cc1ccc2ncn(C)c2c1CNC(=O)c1csc(C2CC2)c1` [Example 144, 5-cyclopropyl-N-((1,6-dimethyl-1H-benzimidazol-7-yl)methyl)thiophene-3-carboxamide] belongs 90%.

For the origin of these results see patent US11230541B2, “Heterocyclic compound” (Takeda Pharmaceutical Company Limited, priority 2017, dated 2022).
